The results in this text go back to patent US20140234888A1, “Method for Improved Selection of Therapeutic Agents” (priority 2013, published 2014).

For one assay, the system named is blood cell fraction. Briefly: TDR-test in vitro, blood of patient B. (Example 2). Type of assay: cell-based, human. To be noted: for reduction TDR: patient B. blood, after 24 hours of incubation. On the procedure:
Individual selection of anticancer chemotherapy was based on testing the dynamics of TDR in blood with cytostatics—Etoposide (in single therapeutic doses 80-100-120 mg/m2), Cisplatin (25-50-75-100 mg/m2), Carboplatin (150-300-450 mg/m2), Gemcitabine (800-1000-1200 mg/m2), Navelbine (25-30-35 mg/m2), Doxorubicin (20-30-40 mg/m2), Epidoxorubicin (50-70-90 mg/m2), Mitomycin C (4-6-8 mg/m2).

A further assay concerns whole blood. Briefly: TDR-test in vitro, blood of patient G. (Example 1). Type of assay: cell-based, human. To be noted: for reduction TDR: after 24 hours of incubation.
Assay [1] concerns Chronic rhinitis of allergic origin, chronic bronchitis. Briefly: Treatment of patient F. The format is in vivo, human. To be noted: before individual testing. On the procedure: Diagnosis: “Chronic rhinitis of allergic origin, chronic bronchitis, allergic component in the acute stage.” In history: positive allergic reactions to penicillin antibiotics, the lack of reaction to tetracycline antibiotics. […] Doxycycline is used in doses of 100 mg and 200 mg on admission; when calculating the duration of induktothermy effect was adopted by the duration of the patient's blood sample for 2 seconds, which corresponds to the length of the actual procedure, 25-30 minutes.

The test system of assay [2] is Chronic obstructive bronchitis. The assay can be described thus: Treatment of patient M. Type of assay: in vivo, human. To be noted: endobronchial 250 mg followed by inductothermy 30 minutes, 1 treatment per day, 10 procedures, 2 weeks. On the procedure: Based on the results of investigations the patient was assigned to a combination of antibiotic Cefazolin and inductothermy: endobronchial administration of Cefazolin 250 mg and immediately after this session inductothermy the projection of the large bronchi in the anterior-posterior direction with opposing fields of the two vehicles “Magniterm” for 30 minutes.

The subject of assay [3] is microflora of the respiratory tract. The assay can be described thus: Sputum sample sensitivity to antibiotics (antibiotikogramma). The format is cell-based. To be noted: sputum sample of patient M.
In the next assay the test system is patient's blood. Briefly: TDR-test in vitro, blood of patient M. (Example 4). To be noted: various doses, 1, 2 and 24 hours.

Description for patient's blood: Therefore, we first proposed to take, in fact, it is a dynamic integrated assessment test “in vitro” level of nonspecific resistance to therapeutic agents during interaction with the blood of the patient. Selection of optimal treatments, their doses and combinations proposed to control the TDR dynamics within 24-72 hours, with some time intervals. The choice of temporary interval for determination the TDR dynamic is defined of main stage of the biochemical interaction of medicine (or non-drug therapeutic influence) with blood of the patient in vitro (phase 1—induction of biochemical reactions within the first 10-40 minutes, 2nd—for 1-3 hours, 3rd—within 24-72 hours). Therefore, TDR is expedient to record in intervals of precisely these three main stages of the induced signal transduction and protein synthesis (30-60 minutes, 2-3 hours, 24-72 hours after the start of testing).

Consider `CCC1=C[C@@H]2CN(C1)Cc1c([nH]c3ccccc13)[C@@](C(=O)OC)(c1cc3c(cc1OC)N(C)[C@H]1[C@@](O)(C(=O)OC)[C@H](OC(C)=O)[C@]4(CC)C=CCN5CC[C@]31[C@@H]54)C2` [Navelbine], for which the “reduction TDR” value with blood cell fraction (dose 25 mg/m2) turned out to be 20%.

For `CC(=O)N[C@H]1[C@H](O[C@H]2[C@H](O[C@H](C)C(=O)N[C@@H](C)C(=O)N[C@H](CCC(=O)O)C(N)=O)[C@@H](NC(C)=O)C(O)O[C@@H]2CO)O[C@H](CO)[C@@H](O)[C@@H]1O` (stereo partly drawn) [GMDP, glucosomuramyldipeptide], in the assay with whole blood (24 h incubation, dose 5 mg), the “TDR increase compared to control” value is recorded as 64%. Besides, the “increase in TDR compared with the control” value in the assay on blood cell fraction (patient B. blood cell fraction, after 1 hour of incubation, dose 50 mg) worked out at 78%. In addition, the “increase in TDR” value in the assay with blood cell fraction (patient B. blood cell fraction, after 24 h of incubation, dose 10 mg) stood at 228%. In the case of `CC[C@H]1OC(=O)[C@H](C)[C@@H](O[C@H]2C[C@@](C)(OC)[C@@H](O)[C@H](C)O2)[C@H](C)[C@@H](O[C@@H]2O[C@H](C)C[C@H](N(C)C)[C@H]2O)[C@](C)(O)C[C@@H](C)C(=O)[C@H](C)[C@@H](O)[C@]1(C)O` [Erythromycin], the “efficiency of conventional therapy” value in assay [1] is given as “low efficiency”. For `N.N.[Cl][Pt][Cl]` [Cisplatin], the “reduction TDR” value in the assay on whole blood (dose 75 mg/m2) and in the assay on blood cell fraction (dose 100 mg/m2) was 32% each time.

`CC(=O)O[C@H]1C(=O)[C@@]2(C)[C@H]([C@H](OC(=O)c3ccccc3)[C@]3(O)C[C@H](OC(=O)[C@H](O)[C@@H](NC(=O)c4ccccc4)c4ccccc4)C(C)=C1C3(C)C)[C@]1(OC(C)=O)CO[C@@H]1C[C@@H]2O` [Paclitaxel]: the results for the “reduction TDR” value in the assay with whole blood (dose 175 mg/m2) and in the assay on blood cell fraction (dose 190 mg/m2) were 28% and 25%, respectively.

As for `Cc1nnc(SCC2=C(C(=O)O)N3C(=O)[C@@H](NC(=O)Cn4cnnn4)[C@H]3SC2)s1` [Cefazolin], in assay [2], the clinical outcome is recorded as “sustained remission of chronic bronchitis”. In assay [3], the “sensitivity of the microflora to the antibiotic” value is reported as “highly sensitive”. In addition, the “change of TDR in blood samples during the incubation” value in the assay with patient's blood is given as “progressive decrease”. As to `COc1cc([C@@H]2c3cc4c(cc3[C@@H](O[C@@H]3O[C@@H]5CO[C@@H](C)O[C@H]5[C@H](O)[C@H]3O)[C@H]3COC(=O)[C@H]23)OCO4)cc(OC)c1O` [Etoposide], the “reduction TDR” value in the assay on blood cell fraction (dose 120 mg/m2) amounted to 21%. For the compound `Nc1ccn([C@@H]2O[C@H](CO)[C@@H](O)C2(F)F)c(=O)n1` [Gemcitabine], the “reduction TDR” value in the assay with blood cell fraction (dose 1200 mg/m2) is 30%. As to `N.N.O=C([O-])C1(C(=O)[O-])CCC1.[Pt+2]` [Carboplatin], the “reduction TDR” value is given as 36% in the assay with whole blood (dose 450 mg/m2) and 27% in the assay with blood cell fraction (dose 350 mg/m2). On to `O=P1(N(CCCl)CCCl)NCCCO1` (stereo not drawn) [Cyclophosphamide], for which the “reduction TDR” value in the assay on whole blood (dose 600 mg/m2) is 30%.

With `CN1CCc2c(c3ccccc3n2Cc2ccccc2)C1` [Diazolin], the “efficiency of conventional therapy” value in assay [1] was “low efficiency”.
